Laboratory results taken from patent US20220177462A1, “SUBSTITUTED HETEROCYCLIC AMIDE COMPOUND AND PREPARATION METHOD THEREFOR AND PHARMACEUTICAL USE THEREOF” (GENFLEET THERAPEUTICS (SHANGHAI) INC., priority 2019, published 2022).
Where two headings read alike, the source gives them in different places.

Tests used:
[1] = biological target: T1, RIPK1 enzyme (Homo sapiens, UniProt Q13546); test: Inhibitory activity of the compounds against RIPK1 enzyme (33P-ATP, MBP substrate); type: biochemical; conditions: 36 nM RIPK1, 0.33 mg/ml MBP, 155 μM P33-labeled ATP, room temperature 2 hours
T1 construct: purchased Eurofins 16-022
T1 sequence (Q13546 1-671): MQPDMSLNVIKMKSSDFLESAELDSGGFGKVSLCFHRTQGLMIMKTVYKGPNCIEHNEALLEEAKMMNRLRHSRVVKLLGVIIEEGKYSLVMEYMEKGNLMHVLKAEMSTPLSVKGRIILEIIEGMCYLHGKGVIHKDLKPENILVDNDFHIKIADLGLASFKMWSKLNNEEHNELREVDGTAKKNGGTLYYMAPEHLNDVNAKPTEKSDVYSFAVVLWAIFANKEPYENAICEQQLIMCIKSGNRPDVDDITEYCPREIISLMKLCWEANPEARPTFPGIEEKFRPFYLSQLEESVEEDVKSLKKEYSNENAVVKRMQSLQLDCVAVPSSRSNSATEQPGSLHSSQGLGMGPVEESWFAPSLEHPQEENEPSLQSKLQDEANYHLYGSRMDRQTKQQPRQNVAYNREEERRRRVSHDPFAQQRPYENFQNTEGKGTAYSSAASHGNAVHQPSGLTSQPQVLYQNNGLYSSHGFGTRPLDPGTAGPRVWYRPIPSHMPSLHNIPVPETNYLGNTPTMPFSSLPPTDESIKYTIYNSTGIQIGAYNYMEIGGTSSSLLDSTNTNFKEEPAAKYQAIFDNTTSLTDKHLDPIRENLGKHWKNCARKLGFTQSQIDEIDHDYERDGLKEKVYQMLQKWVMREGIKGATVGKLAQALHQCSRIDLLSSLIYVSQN
Method: The test compound was dissolved in DMSO to prepare a 10 mM stock solution. The stock solution was diluted in 3.16 folds with DMSO to a series of gradient concentrations. Then, the resultant solution was diluted in 50 folds with MOPS buffer pH 7.0 to prepare a working solution. The working solution was mixed with 36 nM RIPK1 (final concentration) and 0.33 mg/ml substrate MBP homogeneously. Thereafter, 10 mM magnesium ion and 155 μM P^33 isotopically labeled ATP were added for the reaction. The final concentration of DMSO was 2%. After the reaction was carried out at room temperature for 2 hours phosphoric acid was added to terminate the reaction. The final reaction system was tested using a liquid scintillation counter after treatment. The result obtained by subtracting a blank control from the tested value was converted to activity percentage as compared to the readout value of control group. The activity percentage was plotted against the final concentration of respective compound using a 4-parameter fitting to obtain the inhibitory IC50 of the compound against RIPK1 enzyme.

[2] = test system: U937 cells; test: Inhibitory activity against programmed necroptosis of U937 cells induced by TNF-α; type: cell-based, human
Method: The U937 cell strain which was used in the following Testing Examples was derived from ATCC, No.: CRL-1593.2, batch No.: 63479999, culture medium: RPMI-1640+10% FBS.
The compound was dissolved in DMSO to prepare a 10 mM stock solution. The stock solution was diluted in 3.16 folds with DMSO to a series of gradient concentrations. Then, the resultant solution was diluted in 250 folds with a culture medium to prepare a working solution. The U937 cells were inoculated in a 384-well plate at 5000/well. The compound at respective concentration was added to each of the cells, and was mixed with the cells homogeneously. 100 ng/ml human TNF-α and 25 μM Q-VD-Oph were added simultaneously to induce programmed necroptosis of the cells. The final concentration of DMSO was 2%. The cells were placed in the incubator at 37° C. and 5% CO2 for further culture of 48 hours. Celltiter-Glo reagent was used for detection. After adequate pyrolysis reaction, the chemiluminescence readout value was recorded by a microplate reader. The survival rate was calculated from the detection results using the equation as follows: SR (%)=(RLU compound−RLU blank)/(RLU high control−RLU blank)×100%. The survival rate was plotted against the final concentration of respective compound using a 4-parameter fitting to calculate the inhibitory IC50 of the compound against programmed necroptosis of cells induced by TNF-a.

[3] = test system: L929 cells; test: Inhibitory activity against programmed necroptosis of L929 cells induced by TNF-α; type: cell-based; conditions: Mus musculus, 30 ng/ml murine TNF-α and 15 μM Z-VAD, 6 hours, CellTiter-Glo survival rate, read-out: L929 AbIC50
Method: The compound was dissolve in DMSO to prepare a 10 mM stock solution. The stock solution was diluted in 3.16 folds with DMSO to a series of gradient concentrations. Then, the resultant solution was diluted in 100 folds with a culture medium to prepare a working solution. The L929 cells were inoculated in a 384-well plate at 10000/well. The compound at respective concentration was added to each of the wells, and was mixed with the cells homogeneously. 30 ng/ml murine TNF-α and 15 μM Z-VAD were added simultaneously to induce programmed necroptosis of the cells. The final concentration of DMSO was 2%. The cells were placed in an incubator at 37° C. and 5% CO2 for further culture of 6 hours. CellTiter-Glo reagent was used for detection. After adequate pyrolysis reaction, the chemiluminescence readout value was recorded by a microplate reader. The survival rate was calculated from the detection results using the equation as follows: SR (%)=(RLU compound −RLU blank)/(RLU high control−RLU blank)×100%. The survival rate was plotted against the final concentration of respective compound using a 4-parameter fitting to calculate the inhibitory IC50 of the compound against programmed necroptosis of cells induced by TNF-a.

[4] = read-out: U937 IC50, 100 ng/ml human TNF-α and 25 μM Q-VD-Oph, 48 hours, CellTiter-Glo survival rate
[5] = Homo sapiens, U-937, 48 h, 100 ng/ml human TNF-α and 25 μM Q-VD-Oph, 48 hours, CellTiter-Glo survival rate, read-out: U937 IC50

Compound	IC50 [1]	IC50 [3]	IC50 [2, 5]	further results
COc1ncc(-c2ccc3nc(N)sc3c2)cc1C(=O)NC(C)c1ccccc1OC(F)(F)F (single isomer, unassigned) [Compound Z1-2]	14 nM	6 nM	–	IC50 ([2]; 100 ng/ml human TNF-α and 25 μM Q-VD-Oph, 48 hours, CellTiter-Glo survival rate, read-out: U937 IC50): 0.028 µM
COc1ncc(-c2ccc3nc(NC(C)=O)sc3c2)cc1C(=O)NC(C)c1ccccc1OC(F)(F)F (single isomer, unassigned) [Compound Z5, 5-(2-acetylaminobenzothiazol-6-yl)-2-methoxy-N-(1-(2-(trifluoromethoxy)phenyl)ethyl)nicotinamide]	29 nM	–	–	IC50 [2, 4]: 0.015 µM
COc1ncc(-c2ccc3nc(NC(C)=O)sc3c2)cc1C(=O)NC(C)c1ccccc1OC(F)(F)F (single isomer, unassigned) [Compound Z5-1]	28 nM	–	–	IC50 [2, 4]: 0.005 µM
COc1ncc(-c2ccc3nc(NC(=O)C4CC4)sc3c2)cc1C(=O)NC(C)c1ccccc1OC(F)(F)F (single isomer, unassigned) [Compound Z6, 5-(2-(cyclopropylcarbonylamino)benzo[d]thiazol-6-yl)-2-methoxy-N-(1-(2-(trifluoromethoxy)phenyl)ethyl)nicotinamide]	36 nM	–	0.008 µM	–
COc1ncc(-c2ccc3nc(NC(=O)C4CC4)sc3c2)cc1C(=O)N[C@@H](C)c1ccccc1OC(F)(F)F (single isomer, unassigned) [Compound Z6-1]	60 nM	–	0.003 µM	–
C[C@H](c1ccccc1OC(F)(F)F)N1CCc2ncc(-c3ccc4nc(N)sc4c3)cc2C1=O (single isomer, unassigned) [Compound Z54-2]	51 nM	< 3 nM	–	IC50 ([2]; Homo sapiens, U-937, 48 h, read-out: U937 IC50(μM), 100 ng/ml human TNF-α and 25 μM Q-VD-Oph, 48 hours, CellTiter-Glo survival rate): 0.001 µM
COc1ncc(-c2ccc3nc(N)sc3c2)cc1C(=O)NCc1ccccc1OC(F)(F)F [Compound Z2, 5-(2-aminobenzo[d]thiazol-6-yl)-2-methoxy-N-(2-(trifluoromethoxy)benzyl)nicotinamide]	23 nM	–	0.038 µM	–
COc1ncc(-c2ccc3nc(N)sc3c2)cc1C(=O)NC(C)c1cccc(OC(F)(F)F)c1 (centres unmarked) [Compound Z3, 5-(2-aminobenzo[d]thiazol-6-yl)-2-methoxy-N-(1-(3-(trifluoromethoxy)phenyl)ethyl)nicotinamide]	32 nM	–	–	–
COc1ncc(-c2ccc3nc(N)sc3c2)cc1C(=O)NCc1cccc(OC(F)(F)F)c1 [Compound Z4, 5-(2-aminobenzo[d]thiazol-6-yl)-2-methoxy-N-(3-(trifluoromethoxy)benzyl)nicotinamide]	17 nM	–	–	–
COc1ncc(C(=O)NC(C)c2ccccc2OC(F)(F)F)cc1-c1ccc2nc(N)sc2c1 (centres unmarked) [Compound Z7, 5-(2-aminobenzo[d]thiazol-6-yl)-6-methoxy-N-(1-(2-(trifluoromethoxy)phenyl)ethyl)nicotinamide]	84 nM	–	–	–
CC(NC(=O)c1cncc(-c2ccc3nc(N)sc3c2)c1)c1ccccc1OC(F)(F)F (centres unmarked) [Compound Z9, 5-(2-aminobenzo[d]thiazol-6-yl)-N-(1-(2-(trifluoromethoxy)phenyl)ethyl)nicotinamide]	60 nM	–	–	–
Cc1ncc(C(=O)NC(C)c2ccccc2OC(F)(F)F)cc1-c1ccc2nc(N)sc2c1 (centres unmarked) [Compound Z10, 5-(2-aminobenzo[d]thiazol-6-yl)-6-methyl-N-(1-(2-(trifluoromethoxy)phenyl)ethyl)nicotinamide]	64 nM	–	–	–
COc1ncc(-c2ccc3nc(N)sc3c2)cc1C(=O)N1CCC[C@H](Cc2ccc(F)cc2)C1 [Compound Z17-1]	–	10 nM	0.009 µM	–
Cn1ncc2c(-c3ccn4nc(N)nc4c3)cc(C(=O)N3CCCC(Cc4ccc(F)cc4)C3)cc21 (centres unmarked) [Compound Z29, (4-(2-amino-[1,2,4]triazolo[1,5-a]pyridin-7-yl)-1-methyl-1H-indazol-6-yl)(3-(4-fluorobenzyl)piperidin-1-yl)methanone]	–	12 nM	0.007 µM	–
Cn1ncc2c(-c3ccn4nc(N)nc4c3)cc(C(=O)NCc3cc(F)ccc3OC3CCCC3)cc21 [Compound Z31, 4-(2-amino-[1,2,4]triazolo[1,5-a]pyridin-7-yl)-N-(2-(cyclopentyloxy)-5-fluorobenzyl)-1-methyl-1H-indazole-6-carboxamide]	–	41 nM	0.002 µM	–
COc1ncc(-c2ccc3nc(N)sc3c2)cc1C(=O)NCc1cc(F)cc(F)c1OCC(C)C [Compound Z49, 5-(2-aminobenzo[d]thiazol-6-yl)-N-(3,5-difluoro-2-isobutoxybenzyl)-2-methoxynicotinamide]	–	37 nM	0.006 µM	–
Nc1nc2ccc(-c3cnc4c(c3)C(=O)N(Cc3cc(OC(F)(F)F)ccc3F)CC4)cc2s1 [Compound Z55, 3-(2-aminobenzo[d]thiazol-6-yl)-6-(2-fluoro-5-(trifluoromethoxy)benzyl)-7,8-dihydro-1,6-naphthyridin-5(6H)-one]	39 nM	–	0.008 µM	–
COc1ncc(-c2ccc3nc(NC(=O)C4CC4)sc3c2)cc1C(=O)NC(C)c1ccccc1OC(F)(F)F (centres unmarked) [Compound Z56, 5-(2-(cyclopropylformamido)benzo[d]thiazol-6-yl)-2-methoxy-N-(1-(2-(trifluoromethoxy)phenyl)ethyl)nicotinamide]	36 nM	–	0.008 µM	–
Nc1nc2ccc(-c3cnc4c(c3)C(=O)N(Cc3cc(F)cc(F)c3OC3CC3)CC4)cc2s1 [Compound Z64, 3-(2-aminobenzo[d]thiazol-6-yl)-6-(2-cyclopropoxy-3,5-difluorobenzyl)-7,8-dihydro-1,6-naphthyridin-5(6H)-one]	34 nM	3 nM	0.004 µM	–
Nc1nc2ccc(-c3cnc4c(c3)C(=O)N(Cc3cc(C(F)(F)F)ccc3F)CC4)cc2s1 [Compound Z65, 3-(2-aminobenzo[d]thiazol-6-yl)-6-(2-fluoro-5-(trifluoromethyl)benzyl)-7,8-dihydro-1,6-naphthyridin-5(6H)-one]	43 nM	–	0.048 µM	–
